Measurements published in paper PMC11876601 (Molecular Systems Biology, 2025).
Where two headings read alike, the source gives them in different places.

How the values were obtained:
Test in all cases: Drug combination viability screen (ATPlite, 72 h);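 on AUC: area under vehicle-normalized viability curve scaled 0 to 100 percent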;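 on Curve bottom: fraction of vehicle control viability from four-parameter log-logistic fit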
Format in all cases: cell-based, human
Parameters in all cases: AUC: unit not given beside the values
HuP-T4 cells = settings: for EC50: Homo sapiens
PANC-1 cells = system: PANC-1 cells;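 on AUC: area under vehicle-normalized viability curve scaled 0 to 100 percent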;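 on Curve bottom: fraction of vehicle control viability from four-parameter log-logistic fit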
MiaPaCa-2 cells = settings: for EC50: Homo sapiens
PaTu-8988-T cells = settings: for EC50: Homo sapiens, PaTu 8988t
Colo-357 cells = settings: for EC50: Homo sapiens, COLO357
Suit2-07 cells = settings: for EC50: Homo sapiens

Compound: Nc1ccn([C@@H]2O[C@H](CO)[C@@H](O)C2(F)F)c(=O)n1 [GEM, Gemcitabine]
- EC50 (HuP-T4 cells; HuP-T4, read-out: EC50): 3.08 nM
- EC50 (HuP-T4 cells; HuP-T4, read-out: pEC50 (converted)): 3.09 nM
- Reponse (HuP-T4 cells; HuP-T4, R1, 13.72 nM): 312040
- Reponse (HuP-T4 cells; HuP-T4, R1, 370.37 nM): 231280
- Reponse (HuP-T4 cells; HuP-T4, R1, 1111.11 nM): 191240
- Reponse (HuP-T4 cells; HuP-T4, R1, 3333.33 nM): 187320
- Reponse (HuP-T4 cells; HuP-T4, R1, 10000 nM): 235360
- Reponse (HuP-T4 cells; HuP-T4, R2, 13.72 nM): 353160
- Reponse (HuP-T4 cells; HuP-T4, R2, 41.15 nM): 432720
- Reponse (HuP-T4 cells; HuP-T4, R2, 123.46 nM): 313280
- Reponse (HuP-T4 cells; HuP-T4, R2, 370.37 nM): 314320
- Curve bottom (HuP-T4 cells; HuP-T4, GEM curve fit): 0.12
- Curve effect size (HuP-T4 cells; HuP-T4, GEM curve fit): 0.88
- Curve slope (HuP-T4 cells; HuP-T4, GEM curve fit): 4.56
- Curve top (HuP-T4 cells; HuP-T4, GEM curve fit): 0.99
- AUC (HuP-T4 cells; HuP-T4, GEM curve fit, in %): 35.37
- EC50 (PANC-1 cells; Homo sapiens, PANC-1, read-out: EC50,GEM): ≥ 10 nM
- Reponse (PANC-1 cells; PANC-1, R1, 13.72 nM): 5718200
- Reponse (PANC-1 cells; PANC-1, R1, 41.15 nM): 4879000
- Reponse (PANC-1 cells; PANC-1, R1, 370.37 nM): 4043760
- Reponse (PANC-1 cells; PANC-1, R1, 1111.11 nM): 3920600
- Reponse (PANC-1 cells; PANC-1, R1, 3333.33 nM): 3788160
- Reponse (PANC-1 cells; PANC-1, R1, 10000 nM): 3980640
- AUC (PANC-1 cells; PANC-1, GEM curve fit): 85.88
- Curve bottom (PANC-1 cells; PANC-1, GEM curve fit): 0.69
- Curve effect size (PANC-1 cells; PANC-1, GEM curve fit): 0.31
- Curve slope (PANC-1 cells; PANC-1, GEM curve fit): 1.11
- Curve top (PANC-1 cells; PANC-1, GEM curve fit): 1.01
- Reponse (PANC-1 cells; Panc-1, R2, 41.15 nM): 5844240
- Reponse (PANC-1 cells; Panc-1, R2, 123.46 nM): 5369400
- Reponse (PANC-1 cells; Panc-1, R2, 370.37 nM): 5134080
- Reponse (PANC-1 cells; Panc-1, R2, 1111.11 nM): 4763640
- Reponse (PANC-1 cells; Panc-1, R2, 10000 nM): 4614040
- Reponse (PANC-1 cells; Panc-1, replicate R2, dose 13.72 nM, raw signal): 6385680
- EC50 (MiaPaCa-2 cells; MIA PaCa-2, read-out: EC50,GEM): ≥ 10 nM
- EC50 (MiaPaCa-2 cells; MIA PaCa-2, read-out: EC50): 13.6 nM
- EC50 (MiaPaCa-2 cells; MIA PaCa-2, read-out: pEC50 (converted)): 13.5 nM
- Reponse (MiaPaCa-2 cells; MiaPaCa-2, R1, 13.72 nM): 4319964
- Reponse (MiaPaCa-2 cells; MiaPaCa-2, R1, 41.15 nM): 2249377
- Reponse (MiaPaCa-2 cells; MiaPaCa-2, R1, 123.46 nM): 1464819
- Reponse (MiaPaCa-2 cells; MiaPaCa-2, R1, 370.37 nM): 1237785
- Reponse (MiaPaCa-2 cells; MiaPaCa-2, R1, 1111.11 nM): 1237333
- Reponse (MiaPaCa-2 cells; MiaPaCa-2, R1, 3333.33 nM): 1424454
- Reponse (MiaPaCa-2 cells; MiaPaCa-2, R1, 10000 nM): 1232056
- Reponse (MiaPaCa-2 cells; MiaPaCa-2, R2, 13.72 nM): 3184320
- Reponse (MiaPaCa-2 cells; MiaPaCa-2, R2, 41.15 nM): 1827720
- Reponse (MiaPaCa-2 cells; MiaPaCa-2, R2, 123.46 nM): 1167560
- Reponse (MiaPaCa-2 cells; MiaPaCa-2, R2, 370.37 nM): 1308800
- Reponse (MiaPaCa-2 cells; MiaPaCa-2, R2, 1111.11 nM): 1074400
- Reponse (MiaPaCa-2 cells; MiaPaCa-2, R2, 3333.33 nM): 1132280
- Reponse (MiaPaCa-2 cells; MiaPaCa-2, R2, 10000 nM): 1191360
- Curve bottom (MiaPaCa-2 cells; MiaPaCa-2, GEM curve fit): 0.18
- Curve effect size (MiaPaCa-2 cells; MiaPaCa-2, GEM curve fit): 0.81
- Curve slope (MiaPaCa-2 cells; MiaPaCa-2, GEM curve fit): 1.52
- Curve top (MiaPaCa-2 cells; MiaPaCa-2, GEM curve fit): 0.96
- AUC (MiaPaCa-2 cells; MiaPaCa-2, GEM curve fit, in %): 51.47
- EC50 (PaTu-8988-T cells; read-out: EC50,GEM): ≥ 10 nM
- EC50 (PaTu-8988-T cells; read-out: EC50): 9.74 nM
- EC50 (PaTu-8988-T cells; read-out: pEC50 (converted)): 9.77 nM
- Reponse (PaTu-8988-T cells; PaTu-8988-T, R1, 13.72 nM): 1159840
- Reponse (PaTu-8988-T cells; PaTu-8988-T, R1, 41.15 nM): 749200
- Reponse (PaTu-8988-T cells; PaTu-8988-T, R1, 123.46 nM): 706000
- Reponse (PaTu-8988-T cells; PaTu-8988-T, R1, 370.37 nM): 666320
- Reponse (PaTu-8988-T cells; PaTu-8988-T, R1, 1111.11 nM): 670960
- Reponse (PaTu-8988-T cells; PaTu-8988-T, R1, 3333.33 nM): 680760
- Reponse (PaTu-8988-T cells; PaTu-8988-T, R1, 10000 nM): 674680
- Reponse (PaTu-8988-T cells; PaTu-8988-T, replicate R2, dose 13.72 nM, raw signal): 1366360
- Reponse (PaTu-8988-T cells; PaTu-8988-T, replicate R2, dose 41.15 nM, raw signal): 917320
- Reponse (PaTu-8988-T cells; PaTu-8988-T, replicate R2, dose 123.46 nM, raw signal): 868680
- Reponse (PaTu-8988-T cells; PaTu-8988-T, replicate R2, dose 370.37 nM, raw signal): 808920
- Reponse (PaTu-8988-T cells; PaTu-8988-T, replicate R2, dose 3333.33 nM, raw signal): 899440
- Reponse (PaTu-8988-T cells; PaTu-8988-T, replicate R2, dose 10000 nM, raw signal): 809960
- Curve bottom (PaTu-8988-T cells; PaTu-8988-T, GEM curve fit): 0.31
- Curve effect size (PaTu-8988-T cells; PaTu-8988-T, GEM curve fit): 0.68
- Curve slope (PaTu-8988-T cells; PaTu-8988-T, GEM curve fit): 2.40
- Curve top (PaTu-8988-T cells; PaTu-8988-T, GEM curve fit): 0.96
- AUC (PaTu-8988-T cells; PaTu-8988-T, GEM curve fit, in %): 56.98
- ATP luminescence signal (Colo-357 cells; Colo-357, R1, 13.72 nM): 68560
- ATP luminescence signal (Colo-357 cells; Colo-357, R1, 41.15 nM): 61560
- ATP luminescence signal (Colo-357 cells; Colo-357, R1, 123.46 nM): 70640
- ATP luminescence signal (Colo-357 cells; Colo-357, R1, 370.37 nM): 48200
- ATP luminescence signal (Colo-357 cells; Colo-357, R1, 1111.11 nM): 53560
- ATP luminescence signal (Colo-357 cells; Colo-357, R1, 3333.33 nM): 50680
- ATP luminescence signal (Colo-357 cells; Colo-357, R1, 10000 nM): 66360
- ATP luminescence signal (Colo-357 cells; Colo-357, R2, 13.72 nM): 110000
- ATP luminescence signal (Colo-357 cells; Colo-357, R2, 41.15 nM): 110560
- ATP luminescence signal (Colo-357 cells; Colo-357, R2, 123.46 nM): 89840
- ATP luminescence signal (Colo-357 cells; Colo-357, R2, 370.37 nM): 97560
- ATP luminescence signal (Colo-357 cells; Colo-357, R2, 1111.11 nM): 70040
- ATP luminescence signal (Colo-357 cells; Colo-357, R2, 3333.33 nM): 80720
- ATP luminescence signal (Colo-357 cells; Colo-357, R2, 10000 nM): 83360
- Curve bottom (Colo-357 cells; Colo-357, GEM curve fit): 0.03
- Curve effect size (Colo-357 cells; Colo-357, GEM curve fit): 0.97
- Curve slope (Colo-357 cells; Colo-357, GEM curve fit): 3.24
- Curve top (Colo-357 cells; Colo-357, GEM curve fit): 0.97
- AUC (Colo-357 cells; Colo-357, GEM curve fit, in %): 20.82
- EC50 (Colo-357 cells; read-out: EC50): 1.32 nM
- EC50 (Colo-357 cells; read-out: pEC50 (converted)): 1.32 nM
- EC50 (Suit2-07 cells; read-out: EC50): 7.58 nM
- EC50 (Suit2-07 cells; read-out: pEC50 (converted)): 7.59 nM
- Reponse (Suit2-07 cells; Suit2-07, R1, 13.72 nM): 2323360
- Reponse (Suit2-07 cells; Suit2-07, R1, 41.15 nM): 1614080
- Reponse (Suit2-07 cells; Suit2-07, R1, 123.46 nM): 1487640
- Reponse (Suit2-07 cells; Suit2-07, R1, 370.37 nM): 1265760
- Reponse (Suit2-07 cells; Suit2-07, R1, 1111.11 nM): 1242400
- Reponse (Suit2-07 cells; Suit2-07, R1, 3333.33 nM): 1298400
- Reponse (Suit2-07 cells; Suit2-07, R1, 10000 nM): 913840
- Reponse (Suit2-07 cells; Suit2-07, replicate R2, dose 13.72 nM, raw signal): 3086160
- Reponse (Suit2-07 cells; Suit2-07, replicate R2, dose 41.15 nM, raw signal): 2294600
- Reponse (Suit2-07 cells; Suit2-07, replicate R2, dose 123.46 nM, raw signal): 1746480
- Reponse (Suit2-07 cells; Suit2-07, replicate R2, dose 370.37 nM, raw signal): 1730640
- Reponse (Suit2-07 cells; Suit2-07, replicate R2, dose 1111.11 nM, raw signal): 1568520
- Reponse (Suit2-07 cells; Suit2-07, replicate R2, dose 3333.33 nM, raw signal): 1439120
- Reponse (Suit2-07 cells; Suit2-07, replicate R2, dose 10000 nM, raw signal): 1173920
- Curve bottom (Suit2-07 cells; Suit2-07, GEM curve fit): 0.19
- Curve effect size (Suit2-07 cells; Suit2-07, GEM curve fit): 0.81
- Curve slope (Suit2-07 cells; Suit2-07, GEM curve fit): 1.96
- Curve top (Suit2-07 cells; Suit2-07, GEM curve fit): 1.00
- AUC (Suit2-07 cells; Suit2-07, GEM curve fit, in %): 46.93
